Reference: patent publication US8628762B2, “T-helper cell type 17 lineage-specific adjuvants, compositions and methods” (Icahn School of Medicine at Mount Sinai, priority 2008, dated 2014)

Experiments:
Naïve CD4 T-cells [1] = test: In vitro T-cell differentiation in DC conditioned medium, IL-17/IL-10 in supernatants by ELISA; format: cell-based, C57BL/6J mice
Description: Bone marrow (BM)-derived GM-CSF DC cultures were grown in RPMI supplemented with GM-CSF and 5% foetal bovine serum (FBS), plus 100 μg/mL penicillin, 100 μg/mL streptomycin, 2 mM L-glutamine, 10 mM HEPES, 1 nM sodium pyruvate, 1×MEM nonessential amino acids, and 2.5 μM β-mercaptoethanol (all from Sigma-Aldrich, St. Louis, Mo.), as previously dcseribed^1. Semi-adherent cells were harvested on ice on day 5 and re-plated immediately in fresh GM-CSF medium at 1×10^6 cells/well in 24-well tissue culture-treated plates. Soluble or phagocytic stimuli were added right away to the plates in the same medium and the cells were centrifuged for 2 min at 2000 rpm. Supernatants (conditioned medium, CM) were collected after 18 hours. LPS (from E. coli, serotype 055:B5, L-2880) was purchased from Sigma-Aldrich. BMDC were treated with various doses of soluble LPS or 2:1 A20 LPS blasts:DC to titrate the LPS such that levels of IL-6 produced by DC in response to these stimuli was similar. Soluble LPS was used at a final concentration of 1 ng/mL. The A20 B-cell line was obtained from the ATCC (TIB-208). A20 LPS blasts were prepared by culturing A20 cells at 1×10^6 cells/mL, 3 mL/well in 6-well tissue culture plates for four days in RPMI medium supplemented with 10% FBS, with 100 μg/mL penicillin, 100 μg/mL streptomycin, 2 mM L-glutamine, 10 mM HEPES, 1 nM sodium pyruvate, plus 25 μg/mL LPS, as previously described in Blander, J. M. and Medzhitov, R. (2004) Science 304(5673):1014. […] Cells were centrifuged, counted, and apoptosis was induced by UV irradiation at 350 mJ. […]
Naïve CD4 T cells were isolated first by sorting with MACS® CD4^+ beads (Miltenyi Biotech, Auburn, Calif.) according to manufacturer's instructions and then by fluorescence activated cell sorting (FACS) using a MoFlo™, Vantage, or Influx™ cell sorter for CD25^−CD44^lowCD62L^high cells using allophycocyanin (APC)-conjugated anti-CD25 monoclonal antibody (mAb) (clone PC61.5), FITC-conjugated CD62L mAb (clone MEL-14), and PE-Cy5-conjugated CD44 mAb (clone IM7) (all from eBioscience™, San Diego, Calif.). […]

Bone marrow DC = test: TGF-β bioassay of DC conditioned medium (MFB-F11 SBE-SEAP reporter cells); format: cell-based, mice
Description: Analysis of bioactive TGF-β was performed as previously described in Tesseur, I. et al. (2006) BMC Cell Biol 7: 15. MFB-F11 mouse fibroblast cells stably transfected with a reporter plasmid consisting of TGF-β-responsive Smad-binding elements coupled to a secreted alkaline phosphatase reporter gene (SBE-SEAP) were seeded at 3×10^4 cells/well in 96-well flat bottom tissue culture plates and cultured overnight in DMEM supplemented with 10% FBS and penicillin/streptomycin (DMEM/P/S). Cells were washed twice with PBS and incubated in 50 μL serum-free DMEM for 2 hours. Conditioned medium from DC was diluted 1:5 in serum-free DMEM/P/S and 5 μL was added to the MFB-F11 cells. For detection of total TGF-β, diluted conditioned medium was activated by adding 1.5 μL 6M HCl to 150 μL of sample and incubating 10 minutes at room temperature. Neutralization was performed by adding 1.5 μL 6M NaOH. […] SEAP activity was measured using Great EscAPe™ SEAP Reporter System 3 (Clontech, Mountain View, Calif.) according to the manufacturer's protocol with 96-well white/flat bottom plates. Luciferase activity was measured with a FLUOStar Optima reader (BMG Labtech, Durham, N.C.). For each sample, the concentration of biologically active TGF-β was calculated as follows: (luciferase activity of bio-active TGF-β/luciferase activity for total TGF-β)×100. […]

Naïve CD4 T-cells [2] = test: qPCR of lineage genes in naïve CD4 T-cells cultured with DCCM; format: cell-based, C57BL/6J mice
Description: (§1) Naïve CD4 T cells were isolated first by sorting with MACS® CD4^+ beads (Miltenyi Biotech, Auburn, Calif.) according to manufacturer's instructions and then by fluorescence activated cell sorting (FACS) using a MoFlo™, Vantage, or Influx™ cell sorter for CD25^−CD44^lowCD62L^high cells using allophycocyanin (APC)-conjugated anti-CD25 monoclonal antibody (mAb) (clone PC61.5), FITC-conjugated CD62L mAb (clone MEL-14), and PE-Cy5-conjugated CD44 mAb (clone IM7) (all from eBioscience™, San Diego, Calif.). Cells were grown in complete IMDM (Gibco, Carlsbad, Calif.) supplemented with 10% FBS, 100 μg/mL penicillin, 100 μg/mL streptomycin, 2 mM L-glutamine, 10 mM HEPES, and 1 nM sodium pyruvate, and activated on 48-well tissue-culture plates which had been coated with 4 μg anti-CD3 (clone 2C11) for 3 h at 37° C., then washed 3 times with PBS. Cultures were supplemented with 2 μg/mL anti-CD28 (clone 37-51, a kind gift from J. Allison, Sloan-Kettering Cancer Center) and anti-IL-4 ascites (clone 11B11, a kind gift from T. Moran, Mount Sinai School of Medicine, ATCC number HB188) at 1:500. mAbs 2C11 and 37-51 were purified from hybridoma supernatants by BioXCell Company (West Lebanon, N.H.). When cultured with conditioned medium (CM) from BMDC, T cells were grown in 1:1 CM:fresh complete IMDM. […]
T cells cultured for 48 hours under the indicated conditions were lysed and RNA isolated by TRIzol® extraction (Invitrogen) according to manufacturer's instructions. […] Quantitative real-time, reverse transcription polymerase chain reaction (qPCR) was conducted on an ABI Prism® 7900 instrument (Applied Biosystems, Foster City, Calif.) with primer pairs and probes as follows. […]
Quantitative PCR was performed using TaqMan® quantitative PCR Master Mix at a concentration of 1× (Applied Biosystems). […] “Fold inductions” were calculated using the ΔΔCt method relative to T cells activated under neutral conditions (No cytokines or CM). […]

Naïve CD4 T-cells [3] = test: CD4 T-cells in DCCM re-plated on anti-CD3 for 48 h with neutralizing mAbs or IL-23, cytokines by ELISA; format: cell-based, C57BL/6J mice; settings: re-stimulation for 48 h in the presence of 10 ng/mL IL-23
Description: as §1, with “PBS.” for “PBS. Cultures were supplemented with 2 μg/mL anti-CD28 (clone 37-51, a kind gift from J. Allison, Sloan-Kettering Cancer Center) and anti-IL-4 ascites (clone 11B11, a kind gift from T. Moran, Mount Sinai School of Medicine, ATCC number HB188) at 1:500. mAbs 2C11 and 37-51 were purified from hybridoma supernatants by BioXCell Company (West Lebanon, N.H.). When cultured with conditioned medium (CM) from BMDC, T cells were grown in 1:1 CM:fresh complete IMDM.”
Next, naïve CD4 T-cells were isolated from C57BL/6J mice and activated with 4 μg anti-CD3 and 2 μg/mL anti-CD28 plus anti-IL-4 with CM from C57BL/6J (WT) BMDC that had phagocytosed apoptotic LPS B cell-blasts. […] Cytokines were quantified in supernatants by ELISA. […]

## curdlan
Naïve CD4 T-cells [1]; DC derived from MyD88−/−Trif−/− and Tlr4−/− mice, TGF-β concomitantly present
  induction of IL-17+ CD4 T-cells: able to direct induction of IL-17^+ CD4 T-cells

## lipopolysaccharide [free LPS]
Bone marrow DC
  production of biologically active TGF-β by DC: did not
Naïve CD4 T-cells [1]; three days in CM, with IFN-γ neutralizing antibody
  IL-17 secreting CD4 T-cells: some induction of IL-17 secreting (IL-17^+) CD4 T-cells

## TGF-β
Naïve CD4 T-cells [2]; quantitative RT-PCR
  Foxp3 mRNA induction: highest induction

B1: IL-12: cytokine (eBioscience), 10 ng/mL (protein, UniProt P43431 23-215; P43432 23-335, looked up)
Interleukin-12 subunit alpha: RVIPVSGPARCLSQSRNLLKTTDDMVKTAREKLKHYSCTAEDIDHEDITRDQTSTLKTCLPLELHKNESCLATRETSSTTRGSCLPPQKTSLMMTLCLGSIYEDLKMYQTEFQAINAALQNHNHQQIILDKGMLVAIDELMQSLNHNGETLRQKPPVGEADPYRVKMKLCILLHAFSTRVVTINRVMGYLSSA
Interleukin-12 subunit beta: MWELEKDVYVVEVDWTPDAPGETVNLTCDTPEEDDITWTSDQRHGVIGSGKTLTITVKEFLDAGQYTCHKGGETLSHSHLLLHKKENGIWSTEILKNFKNKTFLKCEAPNYSGRFTCSWLVQRNMDLKFNIKSSSSSPDSRAVTCGMASLSAEKVTLDQRDYEKYSVSCQEDVTCPTAEETLPIELALEARQQNKYENYSTSFFIRDIIKPDPPKNLQMKPLKNSQVEVSWEYPDSWSTPHSYFSLKFFVRIQRKKEKMKETEEGCNQKGAFLVEKTSTEVQCKGGNVCVQAQDRYYNSSCSKWACVPCRVRS
Naïve CD4 T-cells [2]; qPCR after 48 hours of culture
  expression of TH1 lineage-specific transcription factor T-bet: expressed the TH1 lineage-specific transcription factor

B2: IL-23: cytokine (eBioscience), 10 ng/mL (protein, UniProt Q9EQ14 22-196; P43432 23-335, looked up)
Interleukin-23 subunit alpha: VPRSSSPDWAQCQQLSRNLCMLAWNAHAPAGHMNLLREEEDEETKNNVPRIQCEDGCDPQGLKDNSQFCLQRIRQGLAFYKHLLDSDIFKGEPALLPDSPMEQLHTSLLGLSQLLQPEDHPRETQQMPSLSSSQQWQRPLLRSKILRSLQAFLAIAARVFAHGAATLTEPLVPTA
Interleukin-12 subunit beta: B1 Interleukin-12 subunit beta
Naïve CD4 T-cells [3]
  levels of IL-17 produced: only slightly increased the levels of IL-17 produced
  total levels of IL-10 produced: markedly impaired
